Series [1] has as its system T. cruzi Tulahuen strain expressing β-galactosidase. The experiment in a line: T. cruzi primary screening at three fixed concentrations. The format is cell-based. The settings on record: for activity at 100 µM / activity at 1 µM / activity at 10 µM: Trypanosoma cruzi, TULAHUEN; for activity at 100 µM: read-out: Primary screening, growth inhibition values at 100 µM; for activity at 1 µM: read-out: Primary screening, growth inhibition values at 1 µM; for activity at 10 µM: read-out: Primary screening, growth inhibition values at 10 µM. As to the method: (§1) T. cruzi parasites from the Tulahuen strain (discrete typing unit (DTU) VI) expressing β-galactosidase were maintained in culture by the infection of LLC-MK2 cells in DMEM supplemented with 2% FBS and 1% penicillin–streptomycin–glutamine (PSG), as described in [52]. When free-swimming trypomastigotes were released to the culture medium, they were centrifuged for 7 min at 2500 rpm and allowed to swim out of the pellet. Trypomastigotes were used to maintain the parasite cycle, or for the performance of the antiparasitic assays.
[…] Conditions were tested in triplicate for every concentration. Z-values varied between 0.81 and 0.92 in the different plates analyzed. Selected compounds (34.6% potential hit rate) were further analyzed via standard growth inhibition assays. The Z-values of dose–response assays correlated with those previously reported. For both assays, Vero cells and trypomastigotes from the Tulahuen T. cruzi strain expressing β-galactosidase were harvested, centrifuged, and resuspended in DMEM without phenol red supplemented with 1% PSG, 2% FBS, 1 mM sodium pyruvate, and 25 mM HEPES. Vero cells and trypomastigotes were counted, diluted at a concentration of 1 × 10^6 cells/mL each, and mixed 1:1 (v/v). Then, 100 μL of that mixture was added per well to the plates already containing the compounds. Each well contained 50,000 host cells and 50,000 parasites, i.e., multiplicity of infection (MOI) = 1. BNZ was used as control of maximal drug growth inhibition in each round, whereas each plate contained its own negative control (maximum parasite growth; Vero cells plus parasites without drugs) and positive control (minimum parasite growth; trypomastigote forms alone marking an enzymatic zero time or baseline galactosidase activity). After four days at 37 °C, 50 µL of a PBS solution containing 0.25% NP40 and 500 µM chlorophenol red-β-D-galactopyranoside (CPRG) substrate were added per well [32]. Plates were incubated at 37 °C for 4 h, and their absorbance read out at 590 nm using an Epoch Gene5 spectrophotometer.
(§2) Absorbance values derived from the anti-T. cruzi assays and fluorescence values from the anti-P. falciparum and cell toxicity assays were normalized to the controls. In the primary screening at three fixed doses, the compounds’ inhibitory activity was expressed as a percentage of the negative control (100% parasitic growth). In dose–response assays, the compounds’ IC50 and TC50 values were determined with GraphPad Prism 7 software (version 7.00, 2016), using a non-linear regression analysis model defined by the following equation: Y=100 ÷(1+10^((LogIC50−X)×HillSlope))

Series [2] concerns P. falciparum 3D7. The experiment in a line: P. falciparum primary screening at three fixed concentrations. The following applies: average of at least three experiments; for activity at 1 µM / activity at 10 µM / activity at 100 µM: Plasmodium falciparum, read-out: Primary screening, parasite growth relative to the negative control; for activity at 1 µM: 3D7, compound at 1 µM; for activity at 10 µM: 3D7, compound at 10 µM; for activity at 100 µM: 3D7, compound at 100 µM. It is filed as cell-based. As to the method:
(§3) Apicomplexan parasite cultures were maintained at 3% hematocrit under an atmosphere of 37 °C in 93% N2, 5% CO2, and 2% O2, following standard methods. Synchronized cultures were obtained via 5% sorbitol lysis.
[…] Conditions were tested in triplicate for every concentration, and the test was repeated when the standard deviation was above 10% for any concentration. Z-values varied between 0.83 and 0.98 in the different plates analyzed. Selected compounds (12.3% potential hit rate) were further analyzed via standard growth inhibition assays, carried out as previously described in [54]. Briefly, parasitemia was adjusted to 1–1.3%, with >90% rings after sorbitol synchronization. Two hundred microliters of parasite culture were plated in 96-well microplates and incubated for 48 h at 37 °C in the presence of decreasing concentrations of the tested compounds, in triplicate. Parasitemia was determined by fluorescence-assisted cell sorting (FACS). Non-infected RBCs and samples containing parasitized RBCs (including controls with DMSO as carrier solvent) were diluted in PBS to a final concentration of ~1–10 × 10^6 cells/mL. The cell suspension was stained with SYTO 11 (0.5 mM stock in DMSO, Thermo Fisher Scientific, Waltham, MA, USA), to a final concentration of 0.5 μM. Samples were analyzed in a Becton Dickinson FACSCalibur. Sample excitation was carried out using a 488-nm, air-cooled argon-ion laser at a power of 15 mW, using forward and side scatter to gate the RBC population, and SYTO 11 green fluorescence (530 nm, FITC filter) was collected in a logarithmic scale. The single-cell population was selected on a forward–side scattergram, and the green fluorescence from this population was analyzed. Parasitemia was expressed as the number of parasitized cells per 100 erythrocytes.
as §2

Series [3] has as its system T. cruzi Tulahuen strain expressing β-galactosidase. The experiment in a line: anti-T. cruzi dose-response growth inhibition assay (Vero cells plus trypomastigotes, CPRG readout). The format is cell-based. The settings on record: anti-T. cruzi IC50 of non-progressed compounds, read-out: Dose-response assay IC50. On the procedure:
as §1
T. cruzi growth was primarily analyzed under three different concentrations ([…]) of the 81 compounds. Conditions were tested in triplicate for every concentration. Z-values varied between 0.81 and 0.92 in the different plates analyzed. Selected compounds (34.6% potential hit rate) were further analyzed via standard growth inhibition assays. The Z-values of dose–response assays correlated with those previously reported. For both assays, Vero cells and trypomastigotes from the Tulahuen T. cruzi strain expressing β-galactosidase were harvested, centrifuged, and resuspended in DMEM without phenol red supplemented with 1% PSG, 2% FBS, 1 mM sodium pyruvate, and 25 mM HEPES. Vero cells and trypomastigotes were counted, diluted at a concentration of 1 × 10^6 cells/mL each, and mixed 1:1 (v/v). Then, 100 μL of that mixture was added per well to the plates already containing the compounds. Each well contained 50,000 host cells and 50,000 parasites, i.e., multiplicity of infection (MOI) = 1. BNZ was used as control of maximal drug growth inhibition in each round, whereas each plate contained its own negative control (maximum parasite growth; Vero cells plus parasites without drugs) and positive control (minimum parasite growth; trypomastigote forms alone marking an enzymatic zero time or baseline galactosidase activity). After four days at 37 °C, 50 µL of a PBS solution containing 0.25% NP40 and 500 µM chlorophenol red-β-D-galactopyranoside (CPRG) substrate were added per well [32]. Plates were incubated at 37 °C for 4 h, and their absorbance read out at 590 nm using an Epoch Gene5 spectrophotometer.
as §2

Series [4] deals with P. falciparum 3D7. The experiment in a line: P. falciparum dose-response growth inhibition assay (FACS, SYTO 11). The settings on record: P. falciparum 3D7, 48 h, mean (SD). The format is cell-based. On the procedure:
as §3
P. falciparum growth was primarily analyzed under 3 different concentrations ([…]) of the 81 compounds. Conditions were tested in triplicate for every concentration, and the test was repeated when the standard deviation was above 10% for any concentration. Z-values varied between 0.83 and 0.98 in the different plates analyzed. Selected compounds (12.3% potential hit rate) were further analyzed via standard growth inhibition assays, carried out as previously described in [54]. Briefly, parasitemia was adjusted to 1–1.3%, with >90% rings after sorbitol synchronization. Two hundred microliters of parasite culture were plated in 96-well microplates and incubated for 48 h at 37 °C in the presence of decreasing concentrations of the tested compounds, in triplicate. Parasitemia was determined by fluorescence-assisted cell sorting (FACS). Non-infected RBCs and samples containing parasitized RBCs (including controls with DMSO as carrier solvent) were diluted in PBS to a final concentration of ~1–10 × 10^6 cells/mL. The cell suspension was stained with SYTO 11 (0.5 mM stock in DMSO, Thermo Fisher Scientific, Waltham, MA, USA), to a final concentration of 0.5 μM. Samples were analyzed in a Becton Dickinson FACSCalibur. Sample excitation was carried out using a 488-nm, air-cooled argon-ion laser at a power of 15 mW, using forward and side scatter to gate the RBC population, and SYTO 11 green fluorescence (530 nm, FITC filter) was collected in a logarithmic scale. The single-cell population was selected on a forward–side scattergram, and the green fluorescence from this population was analyzed. Parasitemia was expressed as the number of parasitized cells per 100 erythrocytes.
as §2

For a further series, the system named is Vero cells. The experiment in a line: Vero cell toxicity assay (alamarBlue). The format is cell-based, green monkey. The settings on record: 4 days; minimum value of the 95% CI, except BNZ (mean (SD)). On the procedure:
Human erythrocytes were purified from B+ Rh+ blood samples and maintained at 4 °C in incomplete RPMI medium. Vero (green monkey kidney epithelial cells), LLC-MK2 (Rhesus monkey kidney epithelial cells), and HepG2 (human liver epithelial cells) cultures were cultivated in DMEM supplemented with 1% penicillin–streptomycin (PS) and 10% heat-inactivated fetal bovine serum (FBS) at 37 °C, 5% CO2, and >95% humidity, as described in [31]. HepG2 cells were also supplemented with 10% non-essential amino acids. Vero and MK2 cells were passaged twice per week at 1:12 ratios, while HepG2 cells were passaged at a 1:8 ratio.
Vero and HepG2 cells were detached, centrifuged, and resuspended in DMEM without phenol red. Cell viability was checked upon cell counting with trypan blue staining. Then, Vero and HepG2 cells were diluted at a concentration of 5 × 10^5 and 3.2 × 10^5 cells per mL, respectively, before adding 100 µL per well to the 96-well plate. Each run contained its own negative (untreated cells) and positive (medium alone) controls. Plates were incubated at 37 °C for 4 days in the case of Vero, or 2 in the case of HepG2 cells. Assay readout was made by adding 50 µL per well of a PBS solution containing 10% alamarBlue reagent (Thermo Fisher Scientific); then, plates were incubated for another 6 h at 37 °C, before recording the fluorescence intensity with a Tecan Infinite M Nano+ reader (excitation: 530 nm, emission: 590 nm).
as §2
In general terms: Alamar Blue is a resazurin reagent that responds to reducing activity.

Setting [5] is: compound at 1 µM, average of at least three independent experiments.
Setting [6] is: compound at 10 µM, average of at least three independent experiments.
The mark [7] stands for this setting: Trypanosoma cruzi, TULAHUEN, Vero.
Setting [8] is: Plasmodium falciparum, 3D7, 48 h.

Where two headings read alike, the source gives them in different places. Bounds are passed on as bounds.

On to `CC(C)(C)Nc1ncnc2c1nc(-c1ccccc1)n2C(C)(C)C` [Compound 1B], for which the activity at 100 µM in series [1] stood at 12.7%; in the series on P. falciparum 3D7 [2], 69.5%. Also, the activity at 1 µM worked out at 96.3% in series [1] (setting [5]) and 112% with P. falciparum 3D7 [2]. In addition, the results for the activity at 10 µM (in series [1] (setting [6]); with P. falciparum 3D7 [2]) were 93% and 108%, respectively. In addition, the IC50 in series [3] (setting [7]) is 68.4 µM.
With `COc1ccccc1-n1cc(COc2ncnc3c2nc(-c2ccccc2)n3N(C)C)nn1` [Compound 33], the IC50 with P. falciparum 3D7 [4] is 19.2 µM; with P. falciparum 3D7 [4] (setting [8]), around 20 µM. The “Vero Cells TC50” value in the series on Vero cells is reported as above 300 µM. Also, the activity at 100 µM in series [1] is 21.5%; in the series with P. falciparum 3D7 [2], 22.5%. Besides, the activity at 1 µM in series [1] (setting [5]) was determined as 91.5%; with P. falciparum 3D7 [2], 96.3%. Further, the activity at 10 µM in series [1] (setting [6]) came out at 63.3%; with P. falciparum 3D7 [2], 85.4%.
On to `c1ccc(-c2nc3c(OCc4cn(Cc5cscn5)nn4)ncnc3n2N2CCCCC2)cc1` [Compound 76], for which the IC50 in the series with P. falciparum 3D7 [4] was 18.3 µM; with P. falciparum 3D7 [4] (setting [8]), around 20 µM. The “Vero Cells TC50” value with Vero cells is recorded as above 500 µM. Also, the activity at 100 µM in series [1] turned out to be 49.8%; with P. falciparum 3D7 [2], 15.2%. For the same compound, the figures for the activity at 1 µM (in series [1] (setting [5]); with P. falciparum 3D7 [2]) were 89.4% and 95.7%, respectively. Also, the activity at 10 µM in series [1] (setting [6]) was 88.2%; with P. falciparum 3D7 [2], 84.3%.
With `CN1CCN(n2c(-c3ccccc3)nc3c(OCc4cn(Cc5cscn5)nn4)ncnc32)CC1` [Compound 84], in the series with P. falciparum 3D7 [4], inhibition was half-maximal at 28 µM (IC50). Further, the “Vero Cells TC50” value in the series with Vero cells is on record as above 70 µM. For the same compound, the “Primary screening, growth inhibition values at 1 µM” value in series [1] (setting [5]) was 93.615. For the same compound, the “Primary screening, growth inhibition values at 10 µM” value in series [1] (setting [6]) came out at 93.94. For the same compound, the “Primary screening, parasite growth relative to the negative control” value in the series on P. falciparum 3D7 [2] (compound at 1 µM) is 96.34%; in the series on P. falciparum 3D7 [2] (compound at 10 µM), 88.61%; in the series with P. falciparum 3D7 [2] (compound at 100 µM), 13.94%.
Turning to `CCOc1ncnc2c1nc(C)n2Cc1ccccc1` [MJ8], the “Primary screening, parasite growth relative to the negative control” value is given as 107.34% in the series on P. falciparum 3D7 [2] (compound at 1 µM), 100.82% in the series on P. falciparum 3D7 [2] (compound at 10 µM) and 82.46% in the series on P. falciparum 3D7 [2] (compound at 100 µM). Also, the IC50 in series [3] was determined as 67.9 µM.
In the case of `c1ccc(COc2ncnc3c2ncn3Cc2ccccc2)cc1` [MJ11], the figures for the activity at 100 µM (in series [1]; in the series with P. falciparum 3D7 [2]) were 6.06% and 31.8%, respectively. Further, the results for the activity at 1 µM (in series [1] (setting [5]); in the series with P. falciparum 3D7 [2]) were 91.4% and 103%, respectively. In addition, the activity at 10 µM amounted to 85.5% in series [1] (setting [6]) and 102% in the series with P. falciparum 3D7 [2]. In addition, the IC50 in series [3] (setting [7]) was 17.7 µM.
On to `CCOc1ncnc2c1ncn2C(C)(C)C` [MJ24], for which the “Primary screening, parasite growth relative to the negative control” value was found to be 103.15% with P. falciparum 3D7 [2] (compound at 1 µM), 102.53% in the series on P. falciparum 3D7 [2] (compound at 10 µM) and 74.90% in the series on P. falciparum 3D7 [2] (compound at 100 µM). Also, the IC50 in series [3] was 96.6 µM.

The term IC50 denotes the concentration that gives 50% inhibition.

These data come from article PMC8308784, “Novel Purine Chemotypes with Activity against Plasmodium falciparum and Trypanosoma cruzi” (Pharmaceuticals, 2021).
